According to patent US5468734A, “Prophylactic and remedial preparation for diseases attendant on hyperglycemia, and wholesome food” (Godo Shusei Co., Ltd., priority 1992, dated 1995):

How the values were obtained:
[1] = system: maltase (carbohydrase derived from rabbit small intestine mucous membrane); test: Action to inhibit the hydrolytic activity of homogenate prepared from rabbit small intestine mucous membrane: maltase inhibition; assay type: biochemical; settings: for Maltase inhibition rate: substrate maltose 20 mM, pH 6.8, 37° C., 15 minutes
Experimental: (§1) (Action to inhibit the hydrolytic activity of homogenate prepared from rabbit small intestine mucous membrane to carbohydrate)
(§2) A native kind of white rabbits (weight: 3.0-3.5 kg) were sacrificed by exsanguination to take out their small intestines.
(§3) After freezing and thawing the small intestines thus taken out, they were homogenized in a 5 mM EDTA buffer (pH: 7.0) and subjected to centrifugation for 60 minutes at 60,000×g. Precipitate thus formed was collected and suspended again in a 10 mM potassium phosphate buffer (pH: 7.0), thereby obtaining a crude enzyme suspension.
(§4) Sucrose (20 mM) and maltose (20 mM) were used as substrates.
(§5) Each reaction mixture was formulated so as to contain 350 microliters of a 100 mM maleate buffer (pH: 6.8), 100 microliters of a substrate solution, 50 microliters of the crude enzyme suspension and 50 microliters of a test solution. Substances to be tested were separately dissolved in a maleate buffer (pH: 6.8) before use.
(§6) Respective reactions were conducted for 15 minutes at 37° C.

[2] = target: T1, sucrase (carbohydrase derived from rabbit small intestine mucous membrane) (Oryctolagus cuniculus, UniProt P07768); test: Action to inhibit the hydrolytic activity of homogenate prepared from rabbit small intestine mucous membrane: sucrase inhibition; assay type: biochemical; settings: for inhibition at 250 µg/mL / inhibition at 500 µg/mL / inhibition at 1000 µg/mL / inhibition at 2000 µg/mL: 0.25 h, substrate sucrose 20 mM, pH 6.8, 37° C., 15 minutes, read-out: Sucrase inhibition rate; for inhibition at 250 µg/mL: 25 mg/dl; for inhibition at 500 µg/mL: 50 mg/dl; for inhibition at 1000 µg/mL: 100 mg/dl; for inhibition at 2000 µg/mL: 200 mg/dl
T1 construct: suspended again in a 10 mM potassium phosphate buffer (pH: 7.0), thereby obtaining a crude enzyme suspension; from tissue; host or cells: rabbit small intestine (title: mucous membrane), homogenate, 60,000×g precipitate
T1 sequence (P07768 1008-1827 limits assumed): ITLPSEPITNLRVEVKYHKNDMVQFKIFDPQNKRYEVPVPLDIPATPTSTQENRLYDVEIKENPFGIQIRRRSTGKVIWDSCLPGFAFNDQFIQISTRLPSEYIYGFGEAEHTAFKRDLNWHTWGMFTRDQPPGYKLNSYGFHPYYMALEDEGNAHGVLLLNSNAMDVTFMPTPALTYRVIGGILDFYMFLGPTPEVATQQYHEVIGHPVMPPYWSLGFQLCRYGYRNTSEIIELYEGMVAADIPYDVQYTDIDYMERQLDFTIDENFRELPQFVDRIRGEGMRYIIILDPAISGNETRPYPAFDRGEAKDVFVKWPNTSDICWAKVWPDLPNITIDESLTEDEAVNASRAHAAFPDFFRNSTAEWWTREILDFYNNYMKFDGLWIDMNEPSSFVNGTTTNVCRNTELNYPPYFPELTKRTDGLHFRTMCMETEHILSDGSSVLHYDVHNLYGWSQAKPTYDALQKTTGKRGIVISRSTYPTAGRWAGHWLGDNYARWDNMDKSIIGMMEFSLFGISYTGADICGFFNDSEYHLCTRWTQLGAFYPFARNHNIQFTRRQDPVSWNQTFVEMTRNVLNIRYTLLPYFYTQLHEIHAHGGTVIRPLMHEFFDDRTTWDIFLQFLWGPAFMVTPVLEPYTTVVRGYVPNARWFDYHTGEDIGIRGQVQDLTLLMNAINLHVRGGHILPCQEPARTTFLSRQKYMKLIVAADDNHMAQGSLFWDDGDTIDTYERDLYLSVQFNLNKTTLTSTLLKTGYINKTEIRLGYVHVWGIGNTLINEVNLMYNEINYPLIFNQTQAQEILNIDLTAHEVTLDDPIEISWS
T1 sequence (P07768 2-1007 partner limits assumed): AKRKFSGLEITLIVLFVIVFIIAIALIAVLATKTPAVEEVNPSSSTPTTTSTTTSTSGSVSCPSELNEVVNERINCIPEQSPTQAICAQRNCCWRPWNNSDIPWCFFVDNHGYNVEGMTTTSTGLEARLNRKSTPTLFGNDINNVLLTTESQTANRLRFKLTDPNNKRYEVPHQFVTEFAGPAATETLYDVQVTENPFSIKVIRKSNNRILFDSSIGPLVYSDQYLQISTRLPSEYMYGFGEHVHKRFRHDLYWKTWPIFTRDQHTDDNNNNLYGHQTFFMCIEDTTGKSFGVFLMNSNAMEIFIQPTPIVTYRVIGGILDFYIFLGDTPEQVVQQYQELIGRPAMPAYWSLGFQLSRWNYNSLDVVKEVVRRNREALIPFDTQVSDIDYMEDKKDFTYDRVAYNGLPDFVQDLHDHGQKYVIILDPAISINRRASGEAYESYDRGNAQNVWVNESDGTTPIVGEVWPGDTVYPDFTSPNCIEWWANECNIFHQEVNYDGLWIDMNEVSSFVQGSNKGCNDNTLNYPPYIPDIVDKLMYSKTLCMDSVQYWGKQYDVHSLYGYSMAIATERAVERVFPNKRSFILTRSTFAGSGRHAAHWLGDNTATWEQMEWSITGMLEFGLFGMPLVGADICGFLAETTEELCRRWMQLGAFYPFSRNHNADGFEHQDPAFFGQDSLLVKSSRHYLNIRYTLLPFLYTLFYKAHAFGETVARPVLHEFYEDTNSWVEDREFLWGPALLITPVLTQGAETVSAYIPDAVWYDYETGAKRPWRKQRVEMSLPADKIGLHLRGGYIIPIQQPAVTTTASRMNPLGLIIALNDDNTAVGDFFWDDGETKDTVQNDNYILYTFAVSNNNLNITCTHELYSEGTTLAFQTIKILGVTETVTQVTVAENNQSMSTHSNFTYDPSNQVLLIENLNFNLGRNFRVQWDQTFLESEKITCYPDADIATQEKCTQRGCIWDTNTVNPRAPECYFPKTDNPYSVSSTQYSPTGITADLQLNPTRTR
Experimental: as §1, §2, §3, §4, §5, §6

rise in blood sugar = test: Action to depress the rise in blood sugar after sucrose loading to mice; assay type: in vivo, ICR male mice; settings: for Rise in blood sugar / action to depress the rise in blood sugar due to sucrose loading (in words): sucrose 1 g/kg; for Rise in blood sugar: average ± standard error; for action to depress the rise in blood sugar due to sucrose loading (in words): orally 25, 50 and 100 mg/kg (L-arabinose, D-xylose) or 100 mg/kg (others); for action to depress the rise in blood sugar for sucrose or starch loading (in words): summary statement
[3] = dose 100 mg/kg oral, after 30 min.
[4] = dose 100 mg/kg oral, after 60 min.
[5] = dose 100 mg/kg oral, after 120 min.

Row | Maltase inhibition rate ([1]; 25 mg/dl) | Maltase inhibition rate ([1]; 50 mg/dl) | Maltase inhibition rate ([1]; 100 mg/dl) | Maltase inhibition rate ([1]; 200 mg/dl) | sucrase-inhibiting action (in words) [2] | inhibition at 250 µg/mL [2] | inhibition at 500 µg/mL [2] | inhibition at 1000 µg/mL [2] | inhibition at 2000 µg/mL [2] | Structure (SMILES) | maltase-inhibiting action (in words) [1] | Rise in blood sugar (rise in blood sugar; [3]) | Rise in blood sugar (rise in blood sugar; [4]) | action to depress the rise in blood sugar due to sucrose loading (in words) (rise in blood sugar) | action to depress the rise in blood sugar for sucrose or starch loading (in words) (rise in blood sugar) | Rise in blood sugar (rise in blood sugar; [5]) | Rise in blood sugar (rise in blood sugar; dose 25 mg/kg oral, after 30 min.) | Rise in blood sugar (rise in blood sugar; dose 25 mg/kg oral, after 60 min.) | Rise in blood sugar (rise in blood sugar; dose 50 mg/kg oral, after 30 min.) | Rise in blood sugar (rise in blood sugar; dose 50 mg/kg oral, after 60 min.) | Rise in blood sugar (rise in blood sugar; dose 50 mg/kg oral, after 120 min.)
1 | 29.2% | 36.4% | 44.3% | 53.1% | strong sucrase-inhibiting action | 28.5% | 35.5% | 49.5% | 59.8% | O=C[C@H](O)[C@@H](O)[C@H](O)CO [D-Xylose, D-xylose] | strong sucrase-inhibiting action and maltase-inhibiting action | 38.2 Δmg/dl | 45.2 Δmg/dl | depressed in dependence on the dose | effective action to depress the rise in blood sugar | 23.4 Δmg/dl | 76.3 Δmg/dl | 55.4 Δmg/dl | 62.5 Δmg/dl | 47.3 Δmg/dl | 24.0 Δmg/dl
2 |  |  |  | 11.9% | inhibiting actions second to these |  |  |  | 19.9% | O=C(CO)[C@@H](O)[C@H](O)CO [D-Xylulose, D-xylulose] | inhibiting actions second to these | 67.3 Δmg/dl | 59.7 Δmg/dl | significantly depressed | effective action to depress the rise in blood sugar | 27.5 Δmg/dl |  |  |  |  | 
3 | 16.4% | 18.4% | 24.8% | 31.0% | strong sucrase-inhibiting action | 11.6% | 16.2% | 32.8% | 30.7% | C[C@H](O)[C@@H](O)[C@@H](O)[C@H](O)C=O [L-Fucose, L-fucose] | strong sucrase-inhibiting action and maltase-inhibiting action | 62.0 Δmg/dl | 44.4 Δmg/dl | significantly depressed | effective action to depress the rise in blood sugar | 26.3 Δmg/dl |  |  |  |  | 
4 |  |  |  | 19.4% | inhibiting actions second to these |  | 8% | 11.9% | 24.5% | O=C[C@@H](O)[C@H](O)[C@@H](O)CO [L-Xylose, L-xylose] | inhibiting actions second to these | 66.3 Δmg/dl | 53.2 Δmg/dl | significantly depressed | effective action to depress the rise in blood sugar |  |  |  |  |  | 

Further lines, the compound ahead of its results:

Row | Structure (SMILES) | Maltase inhibition rate ([1]; 25 mg/dl) | Maltase inhibition rate ([1]; 50 mg/dl) | Maltase inhibition rate ([1]; 100 mg/dl) | Maltase inhibition rate ([1]; 200 mg/dl) | sucrase-inhibiting action (in words) [2] | inhibition at 250 µg/mL [2] | inhibition at 500 µg/mL [2] | inhibition at 1000 µg/mL [2] | inhibition at 2000 µg/mL [2] | maltase-inhibiting action (in words) [1] | Rise in blood sugar (rise in blood sugar; [3]) | Rise in blood sugar (rise in blood sugar; [4]) | action to depress the rise in blood sugar due to sucrose loading (in words) (rise in blood sugar) | action to depress the rise in blood sugar for sucrose or starch loading (in words) (rise in blood sugar) | Rise in blood sugar (rise in blood sugar; [5]) | Rise in blood sugar (rise in blood sugar; dose 25 mg/kg oral, after 30 min.) | Rise in blood sugar (rise in blood sugar; dose 25 mg/kg oral, after 60 min.) | Rise in blood sugar (rise in blood sugar; dose 50 mg/kg oral, after 30 min.) | Rise in blood sugar (rise in blood sugar; dose 50 mg/kg oral, after 60 min.) | Rise in blood sugar (rise in blood sugar; dose 50 mg/kg oral, after 120 min.)
5 | O=C[C@H](O)[C@H](O)[C@H](O)CO [D-Ribose, D-ribose] | 13.5% | 18.4% | 33.3% | 46.5% | strong sucrase-inhibiting action | 13.7% | 17.8% | 34% | 33.4% | strong sucrase-inhibiting action and maltase-inhibiting action | 61.2 Δmg/dl | 48.5 Δmg/dl | significantly depressed | effective action to depress the rise in blood sugar |  |  |  |  |  | 
6 | O=C(CO)[C@H](O)[C@H](O)CO [D-Ribulose, D-ribulose] |  |  |  | 20.1% | inhibiting actions second to these |  |  |  | 21.7% | inhibiting actions second to these | 65.6 Δmg/dl | 56.3 Δmg/dl | significantly depressed | effective action to depress the rise in blood sugar | 28.1 Δmg/dl |  |  |  |  | 
7 | O=C(CO)[C@@H](O)[C@@H](O)[C@H](O)CO [D-Tagatose, D-tagatose] | 12.5% | 17.7% | 30.3% | 33.9% | strong sucrase-inhibiting action | 8.9% | 15.7% | 30% | 36.6% | strong sucrase-inhibiting action and maltase-inhibiting action | 60.7 Δmg/dl | 44.4 Δmg/dl | significantly depressed | effective action to depress the rise in blood sugar | 26.3 Δmg/dl |  |  |  |  | 
